This note sets out measurements from patent publication US8354498B2, “CD4 mimic peptides and their uses” (Commissariat a l'Energie Atomique, priority 2006, dated 2013).

Like-named read-outs stand apart in the source and are kept apart here.

What all share (type): cell-based
Assay [1] has as its system HIV-1 Ba-L. Description: Dendritic cells assay: MO-DC/CD4+ T cell co-cultures, replication competent virus. To be noted: for EC50: Human immunodeficiency virus 1, BAL. The method, then: Dendritic cell experiments were preformed with the replication-competent CCR5 co-receptor, using non-syncytium inducing, subtype B HIV-1 strain Ba-L whose infectious titer was determined on cultures of PHA/IL-2 stimulated PBMC.
Monocytes were separated from the buffy-coats of HIV seronegative blood donors by counter-flow elutriation and E-rosetting. They were subsequently differentiated to monocyte-derived dendritic cells (MO-DC) using GM-CSF and IL-4. […] After 30 minutes, 100 μl of MO-DC were added (4×10^5 cells/ml) and incubated for 2 h (37° C., 5% CO2). Afterwards, cells were washed 3 times and autologous CD4+ T cells were added, in the presence of compound. Co-cultures were incubated for 24 h, after which the cells were washed again (3 times) to remove the compound. Cells were incubated during 14 days of primary culture, during which half of the culture medium was refreshed twice weekly, without compound. At day 14, cultures were washed and PHA/IL-2 activated PBMC were added (2×10^5 cells/cup) to detect any latent or subliminal infection during a supplementary 14 days of secondary culture. Culture supernatants of primary (day 7 and day 14) and secondary (day 28) cultures were analyzed for the presence of HIV p24 Ag by a monoclonal p24 antibody (HuMab-HIVp24; BIOMARIC NV) enzyme-linked immunosorbant assay (ELISA).
Importantly, the replication-competent HIV-1 Ba-L reference strain, was used for these experiments. The virus was shortly pre-incubated with a dilution range of one of the compounds before addition of the MO-DC target cells. The compound remained present during infection and during the first 24 h of the co-culture of the MO-DC with the autologous CD4^+ T cells, but was washed away afterwards.

Assay [2] concerns HIV-1 pseudovirus VI1358. Description: HIV single cycle pseudovirus assay in GHOST cells. To be noted: read-out: antiviral activity EC50. The method, then: (§1) For single-cycle infection experiments, HIV pseudoviruses representative of different HIV-1 subtypes were produced by co-transfection of 2×10^5 HEK293 (American Type Culture Collection) derived cells expressing the SV40 T antigen (HEK293 T), using the calcium phosphate method (ProFection® mammalian transfection system; PROMEGA). To this end, 1 μg of an HIV-1 env expressing vector under control of a CMV promoter, derived from pcDNA4/TO backbone vector (INVITROGEN) and 400 ng of the HIV-1 genomic vector (pNL4-3.Luc R^−E^−; National Institutes of Health AIDS Research and Reference Reagent program; catalogue number 3418), under control of the LTR promoter were used. pNL4-3.Luc R^−E^− contains the whole HIV genome, including a packaging signal, but has a frameshift in the env and vpr genes rendering it non-infectious. Furthermore a luciferase reporter gene replaces the nef gene. After 24 h, the medium was replaced with medium containing 1 mM sodium butyrate (SIGMA-ALDRICH) and the cells were further incubated for an additional 24 h. Afterwards, the supernatant with the pseudovirus was harvested, filtered (Millex 0.45 μm filters, MILLIPORE) and after adding Fetal calf serum (FCS; 10%) stored at −80° C. Pseudoviruses of different HIV-1 subtypes were created, including pseudoviruses derived from the subtype B, CCR5 co-receptor using strains Ba-L and SF162; the subtype B, CXCR4 co-receptor using strains Mn; the subtype C, CCR5 co-receptor using strains VI829, VI1358 and MJ4 and the CRF01_AE, CXCR4 co-receptor using strain CA10-3.
(§2) Fifty microliters of HIV pseudovirus were pre-incubated with 50 μl of a dilution series of a CD4 miniprotein or reference compound. After 15 minutes, 100 μl of GHOST target cells (AIDS REFERENCE AND REAGENT PROGRAM; 1.2×10^5 cells/ml) expressing CD4 and either of the HIV co-receptors CCR5 or CXCR4 were added to the 96-well cups containing the pre-treated pseudovirus. The GHOST cells were lysed 48 h post-infection by addition of the luciferin substrate (SteadyLite HTS, PERKIN ELMER LIFE SCIENCES). The resulting light signal, expressed as relative lights units (RLU), was quantified in a luminometer (Top Count™, CANBERRA-PACKARD).

Assay [3] has as its system HIV-1 pseudovirus VI829. Description: HIV single cycle pseudovirus assay in GHOST cells. To be noted: read-out: antiviral activity EC50. As for the experimental part:
as §1, §2

Assay [4] concerns HIV-1 pseudovirus SF162. Description: HIV single cycle pseudovirus assay in GHOST cells. To be noted: read-out: antiviral activity EC50. As for the experimental part: as §1, §2
For assay [5], the system named is HIV-1 pseudovirus Mn. The experiment in a line: HIV single cycle pseudovirus assay in GHOST cells. To be noted: read-out: antiviral activity EC50. As for the experimental part: as §1, §2
Assay [6] deals with HIV-1 pseudovirus Ba-L. The experiment in a line: HIV single cycle pseudovirus assay in GHOST cells. To be noted: read-out: antiviral activity EC50. The method, then:
as §1, §2

Assay [7] has as its system HIV-1 pseudovirus MJ4. The experiment in a line: HIV single cycle pseudovirus assay in GHOST cells. To be noted: read-out: antiviral activity EC50. The method, then:
as §1, §2

Assay [8] concerns HIV-1 pseudovirus CA10-3. Description: HIV single cycle pseudovirus assay in GHOST cells. To be noted: read-out: antiviral activity EC50. The method, then: as §1, §2

In the case of `Cc1cc(C)c(Nc2ccnc(Nc3ccc(C#N)cc3)n2)c(C)c1` [TMC120], the 50% effective concentration (EC50) amounted to 3 nM in assay [1] (168 h, Day 7, read-out: EC50, primary culture, Day 7); 3 nM in assay [1] (336 h, Day 14, read-out: EC50, primary culture, Day 14); 0.6 nM in assay [2]; 1.2 nM in assay [3]; 0.9 nM in assay [4]; 1.8 nM in assay [5]. The EC50 in assay [6], in assay [7] and in assay [8] was 1.5 nM throughout. Besides, the “Cmin, secondary culture, Day 28 (minimal concentration blocking infection)” value in assay [1] (confirmed at Day 28) was found to be 100 nM.

One may read the EC50 as the concentration that produces a half-maximal response.
